One block for each molecule: values may come before it. The source made the active and inactive calls.
What was measured:
[1] = blockers of CRF-binding protein–CRF-R2 complex – cell-based, uHTS hits, 384-well, dose response (AID 651639); type: functional, Homo sapiens; details: read-out: IC50_Mean
BJ [2] = assay: cells; type: functional, cell-based, Homo sapiens; details: Homo sapiens, BJ
[3] = DRD fibroblast viability loss – cell-based, non-viral oncogenic, luminescence, dose response (AID 1934); type: functional; details: Homo sapiens
[4] = target: T1, Corticotropin-releasing factor receptor 2/Corticotropin-releasing factor-binding protein (Homo sapiens, UniProt P24387+Q13324); assay: Dose Response confirmation of uHTS hits for small molecule antagonists of the CRF-binding protein and CRF-R2 receptor complex.; type: functional; details: read-out: IC50_Mean
T1 sequence (Q13324 whole entry): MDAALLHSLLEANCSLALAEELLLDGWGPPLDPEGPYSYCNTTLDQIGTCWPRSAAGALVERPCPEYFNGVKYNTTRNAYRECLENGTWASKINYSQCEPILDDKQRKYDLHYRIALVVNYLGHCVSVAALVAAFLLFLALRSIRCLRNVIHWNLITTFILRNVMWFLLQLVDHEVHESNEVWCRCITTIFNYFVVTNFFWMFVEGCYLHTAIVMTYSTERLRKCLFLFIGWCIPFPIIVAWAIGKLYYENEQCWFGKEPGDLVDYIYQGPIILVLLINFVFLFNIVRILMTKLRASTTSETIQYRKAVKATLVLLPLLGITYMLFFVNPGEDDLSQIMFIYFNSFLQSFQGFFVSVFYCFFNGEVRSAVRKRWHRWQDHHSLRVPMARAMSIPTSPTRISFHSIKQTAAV
T1 sequence (P24387 whole entry): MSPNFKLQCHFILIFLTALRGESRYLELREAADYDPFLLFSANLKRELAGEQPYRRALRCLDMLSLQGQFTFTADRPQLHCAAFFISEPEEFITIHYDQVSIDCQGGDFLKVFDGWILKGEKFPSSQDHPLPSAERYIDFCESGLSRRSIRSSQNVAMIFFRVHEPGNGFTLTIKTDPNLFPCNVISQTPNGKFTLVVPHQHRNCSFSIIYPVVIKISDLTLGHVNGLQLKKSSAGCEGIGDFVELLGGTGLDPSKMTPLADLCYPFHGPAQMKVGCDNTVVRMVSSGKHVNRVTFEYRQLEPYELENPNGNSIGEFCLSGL

BJ [5] = assay: BJ-TERT fibroblast viability loss – cell-based, RAS-independent, luminescence, dose response (AID 1933); type: functional, Homo sapiens; details: Homo sapiens, BJ
BJ [6] = assay: BJ-TERT-LT-ST fibroblast viability loss – cell-based, RAS-independent, luminescence, dose response (AID 1935); type: functional, Homo sapiens; details: Homo sapiens, BJ;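 further: BJ fibroblasts immortalized with TERT plus LT and ST oncogenes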
[7] = target: T1, Corticotropin-releasing factor receptor 2/Corticotropin-releasing factor-binding protein; assay: activators of CRF receptor 2 with binding protein – uHTS hits, confirmation (AID 602473); type: functional; details: read-out: EC50_Mean
[8] = target: T2, Sentrin-specific protease 7 (Homo sapiens, UniProt Q9BQF6); type: functional;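 further: Luminescence-based dose-response confirmation of ultra-high-throughput screening hits, measuring inhibition of SENP7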
T2 sequence (Q9BQF6 whole entry): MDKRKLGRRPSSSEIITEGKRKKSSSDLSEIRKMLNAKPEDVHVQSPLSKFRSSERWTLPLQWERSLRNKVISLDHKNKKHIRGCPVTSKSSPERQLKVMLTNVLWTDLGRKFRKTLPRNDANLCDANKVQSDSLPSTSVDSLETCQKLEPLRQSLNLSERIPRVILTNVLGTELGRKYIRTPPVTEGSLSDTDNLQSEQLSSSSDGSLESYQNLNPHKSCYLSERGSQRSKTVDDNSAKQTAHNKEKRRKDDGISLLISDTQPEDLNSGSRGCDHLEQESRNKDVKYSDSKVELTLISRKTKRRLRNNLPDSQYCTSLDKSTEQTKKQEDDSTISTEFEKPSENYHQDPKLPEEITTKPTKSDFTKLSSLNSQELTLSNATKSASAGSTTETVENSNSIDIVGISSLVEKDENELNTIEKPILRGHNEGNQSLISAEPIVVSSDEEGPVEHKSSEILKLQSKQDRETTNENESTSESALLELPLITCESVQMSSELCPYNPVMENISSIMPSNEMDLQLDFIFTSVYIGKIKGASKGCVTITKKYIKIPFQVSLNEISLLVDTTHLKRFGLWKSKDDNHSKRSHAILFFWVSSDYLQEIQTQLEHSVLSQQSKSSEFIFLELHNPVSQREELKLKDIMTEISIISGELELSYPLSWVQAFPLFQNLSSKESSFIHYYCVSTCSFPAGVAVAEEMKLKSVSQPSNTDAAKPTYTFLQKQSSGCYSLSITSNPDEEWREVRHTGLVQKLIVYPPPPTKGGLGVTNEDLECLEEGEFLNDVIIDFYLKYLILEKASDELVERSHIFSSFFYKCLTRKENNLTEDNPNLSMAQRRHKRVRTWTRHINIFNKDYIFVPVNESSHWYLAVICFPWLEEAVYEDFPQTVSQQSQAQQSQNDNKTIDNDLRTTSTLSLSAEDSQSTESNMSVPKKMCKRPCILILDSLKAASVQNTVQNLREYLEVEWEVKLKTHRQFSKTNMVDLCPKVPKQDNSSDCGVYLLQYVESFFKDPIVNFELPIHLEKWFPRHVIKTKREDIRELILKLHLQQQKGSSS

[9] = target: T3, Sentrin-specific protease 8 (Homo sapiens, UniProt Q96LD8); type: functional;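 further: luminescence read-out of SENP8 inhibition, dose-response confirmation following an ultra-high-throughput screen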
T3 sequence (Q96LD8 whole entry): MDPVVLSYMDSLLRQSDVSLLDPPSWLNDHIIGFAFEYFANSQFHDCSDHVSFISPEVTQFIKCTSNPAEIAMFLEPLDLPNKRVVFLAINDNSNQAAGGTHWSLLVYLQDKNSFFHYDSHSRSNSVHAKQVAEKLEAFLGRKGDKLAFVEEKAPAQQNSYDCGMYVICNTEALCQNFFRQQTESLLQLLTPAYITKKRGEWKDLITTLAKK

[10] = target: T4, Sentrin-specific protease 6 (Homo sapiens, UniProt Q9GZR1); type: functional;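 further: Luminescence-based dose-response confirmatory assay of SENP6 inhibition, following up an ultra-high-throughput screen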
T4 sequence (Q9GZR1 whole entry): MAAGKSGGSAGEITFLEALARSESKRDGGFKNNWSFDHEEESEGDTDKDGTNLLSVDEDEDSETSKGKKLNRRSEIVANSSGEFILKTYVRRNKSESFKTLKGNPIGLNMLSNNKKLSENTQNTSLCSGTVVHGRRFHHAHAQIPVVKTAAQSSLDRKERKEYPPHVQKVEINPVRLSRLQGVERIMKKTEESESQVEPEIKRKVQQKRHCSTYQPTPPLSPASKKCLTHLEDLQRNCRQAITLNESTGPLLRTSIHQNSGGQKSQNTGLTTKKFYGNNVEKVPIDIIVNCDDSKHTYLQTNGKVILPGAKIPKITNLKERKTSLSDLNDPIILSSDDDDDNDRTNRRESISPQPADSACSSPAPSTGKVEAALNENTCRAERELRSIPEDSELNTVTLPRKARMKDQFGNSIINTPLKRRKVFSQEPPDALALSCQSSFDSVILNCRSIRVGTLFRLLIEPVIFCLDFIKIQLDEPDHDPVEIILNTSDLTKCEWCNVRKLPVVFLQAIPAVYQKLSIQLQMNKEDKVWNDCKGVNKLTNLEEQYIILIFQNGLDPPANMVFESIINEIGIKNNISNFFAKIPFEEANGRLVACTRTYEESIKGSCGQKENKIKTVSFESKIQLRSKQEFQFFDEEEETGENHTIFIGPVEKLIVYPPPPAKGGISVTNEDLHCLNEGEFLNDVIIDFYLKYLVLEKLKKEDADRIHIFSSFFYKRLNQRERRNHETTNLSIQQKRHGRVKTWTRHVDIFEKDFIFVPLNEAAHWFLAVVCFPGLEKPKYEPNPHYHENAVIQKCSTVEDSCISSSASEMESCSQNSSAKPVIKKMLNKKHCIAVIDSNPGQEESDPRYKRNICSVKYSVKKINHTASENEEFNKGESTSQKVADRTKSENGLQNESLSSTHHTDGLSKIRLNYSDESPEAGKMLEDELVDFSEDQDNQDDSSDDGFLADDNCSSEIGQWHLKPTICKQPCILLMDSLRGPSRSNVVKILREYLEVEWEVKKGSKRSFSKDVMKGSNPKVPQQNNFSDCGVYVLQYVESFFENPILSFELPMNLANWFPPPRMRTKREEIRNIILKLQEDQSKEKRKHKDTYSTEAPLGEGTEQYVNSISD

Caspase-3 = target: T5, Caspase-3 (Homo sapiens, UniProt P42574); type: functional;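 further: Dose-response selectivity test against caspase-3 for candidate inhibitors of sentrin-specific proteases (SENPs)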
T5 sequence (P42574 whole entry): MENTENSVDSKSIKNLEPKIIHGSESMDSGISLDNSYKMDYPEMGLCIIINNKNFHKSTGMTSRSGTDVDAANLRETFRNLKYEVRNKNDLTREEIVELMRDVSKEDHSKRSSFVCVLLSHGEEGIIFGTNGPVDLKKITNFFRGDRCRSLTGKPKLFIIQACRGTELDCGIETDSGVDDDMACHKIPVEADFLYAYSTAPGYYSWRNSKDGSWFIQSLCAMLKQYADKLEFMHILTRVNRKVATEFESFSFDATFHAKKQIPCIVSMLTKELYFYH

[11] = target: T6, Low molecular weight phosphotyrosine protein phosphatase (Homo sapiens, UniProt P24666); type: functional; details: read-out: IC50_Mean;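 further: Dose-response confirmation assay measuring inhibition of LMPTP enzyme activity by fluorescence intensity read-out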
T6 sequence (P24666 whole entry): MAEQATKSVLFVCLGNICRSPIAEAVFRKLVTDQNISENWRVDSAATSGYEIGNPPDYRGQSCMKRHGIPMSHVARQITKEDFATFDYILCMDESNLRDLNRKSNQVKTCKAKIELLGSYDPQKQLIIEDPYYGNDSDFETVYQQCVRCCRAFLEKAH

Protein Wnt-3a = Protein Wnt-3a (Mus musculus, UniProt P27467); assay: antagonism of Wnt3a pathway luciferase reporter – Wnt-LIGHT cells, luminescence, selectivity assay for Gli-SUFU antagonist project, dose response (AID 651570); type: functional; details: read-out: IC50_Mean;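 further: Wnt-LIGHT reporter cells stimulated with conditioned medium from Wnt3a-producing cells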
[12] = Trypanosoma cruzi growth suppression in host cells – NIH3T3 host cells, beta-gal luminescence, confirmation (AID 2044); type: functional, cell-based;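 further: intracellular parasites grown in NIH/3T3 mouse fibroblasts as host cells; luminescent beta-galactosidase reporter signal from transgenic T. cruzi replicating inside host cells; inhibitors lower the luminescence signal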
[13] = NIH3T3 cell viability loss – ATP luminescence, mouse fibroblasts, counter-screen, dose response (AID 2010); type: functional, cell-based;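 further: cells exposed to compound for about 90 hours before reading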
[14] = HGIII-sPLA2 enzyme inhibition potency – biochemical, QFRET, IC50, dose response (AID 743457);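 further: green fluorescence rise as the enzyme cleaves BODIPY PC-A2 in liposomes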
[15] = target: T7, Polyadenylate-binding protein 1 (Homo sapiens, UniProt P11940); assay: MLLE domain peptide-binding blockers, IC50 – biochemical, fluorescence polarization, FITC-PAM2 peptide, dose response (AID 602259); type: functional; details: read-out: IC50_Mean
[16] = target: T7, Polyadenylate-binding protein 1; assay: MLLE binding blockers, Cy5 peptide tracer – biochemical, fluorescence polarization, Cy5-PAM2 peptide, secondary, miRNA deadenylation inhibitor project, dose response (AID 602260); type: functional; details: read-out: IC50_Mean
[17] = IGROV1 cell killing – plate reader, dry powder samples, PAX8 inhibitor project, dose response (AID 743043); type: functional, cell-based; details: IGROV-1
[18] = OVCAR-3 cell viability loss – plate reader, dry powder samples, PAX8 inhibitor project, dose response (AID 743044); type: functional, cell-based
[19] = OVCAR8 cell viability loss – plate reader, dry powder samples, PAX8 project, dose response (AID 743197); type: functional, cell-based; details: OVCAR-8
Paired box protein Pax-8 = Paired box protein Pax-8 (Homo sapiens, UniProt Q06710); assay: PAX8 transcriptional activity inhibition in RMG-I – RMG-I cells, luciferase, cherry-pick, dose response (AID 687027); type: functional, cell-based;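 further: luciferase reporter driven by Pax8 target thyroperoxidase promoter measured by SteadyGlo luminescence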
Sequence of Paired box protein Pax-8 (Q06710 whole entry): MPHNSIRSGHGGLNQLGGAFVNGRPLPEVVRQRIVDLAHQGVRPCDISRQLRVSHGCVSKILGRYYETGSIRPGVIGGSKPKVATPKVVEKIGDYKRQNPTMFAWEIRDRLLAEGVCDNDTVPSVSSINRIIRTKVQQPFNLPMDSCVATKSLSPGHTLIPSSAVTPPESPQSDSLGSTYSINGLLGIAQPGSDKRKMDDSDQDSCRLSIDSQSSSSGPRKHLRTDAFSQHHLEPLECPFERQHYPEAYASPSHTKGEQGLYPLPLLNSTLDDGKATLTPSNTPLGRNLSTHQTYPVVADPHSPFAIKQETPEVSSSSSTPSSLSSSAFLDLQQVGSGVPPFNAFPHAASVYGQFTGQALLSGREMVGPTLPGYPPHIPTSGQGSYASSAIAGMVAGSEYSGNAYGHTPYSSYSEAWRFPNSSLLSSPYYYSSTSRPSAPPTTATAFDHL

T7 sequence (P11940 whole entry, the tested form may be a part): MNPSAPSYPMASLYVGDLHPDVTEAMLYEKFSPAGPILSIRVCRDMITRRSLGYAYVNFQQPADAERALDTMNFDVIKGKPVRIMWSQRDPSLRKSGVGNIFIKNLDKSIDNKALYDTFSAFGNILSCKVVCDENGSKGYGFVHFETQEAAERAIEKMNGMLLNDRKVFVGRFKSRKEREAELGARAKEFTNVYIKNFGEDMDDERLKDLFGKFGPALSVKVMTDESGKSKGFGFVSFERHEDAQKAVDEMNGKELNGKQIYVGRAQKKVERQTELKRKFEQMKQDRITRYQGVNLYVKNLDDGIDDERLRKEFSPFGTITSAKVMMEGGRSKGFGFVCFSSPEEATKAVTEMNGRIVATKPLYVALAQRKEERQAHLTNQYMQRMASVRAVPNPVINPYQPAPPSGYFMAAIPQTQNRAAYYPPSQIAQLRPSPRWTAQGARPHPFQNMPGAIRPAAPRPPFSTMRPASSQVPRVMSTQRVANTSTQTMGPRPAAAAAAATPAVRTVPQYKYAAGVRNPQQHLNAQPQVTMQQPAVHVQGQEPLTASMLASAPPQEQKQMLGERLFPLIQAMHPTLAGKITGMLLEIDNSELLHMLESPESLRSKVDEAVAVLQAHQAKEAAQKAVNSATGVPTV
Sequence of Protein Wnt-3a (P27467 whole entry): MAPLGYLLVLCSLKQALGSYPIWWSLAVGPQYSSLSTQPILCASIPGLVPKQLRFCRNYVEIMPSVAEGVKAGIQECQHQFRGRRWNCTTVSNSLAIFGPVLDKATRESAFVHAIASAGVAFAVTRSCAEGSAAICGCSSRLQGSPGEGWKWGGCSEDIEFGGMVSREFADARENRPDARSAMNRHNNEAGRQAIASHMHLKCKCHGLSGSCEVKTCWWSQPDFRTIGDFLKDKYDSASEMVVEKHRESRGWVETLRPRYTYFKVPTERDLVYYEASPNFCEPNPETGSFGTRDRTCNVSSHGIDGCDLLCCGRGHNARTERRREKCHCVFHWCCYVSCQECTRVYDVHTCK

IC50 [8]: 13.9 µM (active)
IC50 [10]: 19 µM (active)
IC50 (Caspase-3): 16.2 µM (active)
SMILES: O=C1/C(=C/N(C(=O)c2ccco2)c2ccc(Br)cc2)Sc2ccccc21
IC50 [9]: 24.7 µM (active)

IC50 [11]: 41.8 µM (inactive)
SMILES: N=c1c(C(=O)NCc2ccco2)cc2c(=O)n3ccccc3nc2n1Cc1ccc(Cl)cc1

IC50 (Protein Wnt-3a): 7.13 µM (active)
SMILES: c1ccc(C[n+]2c(-c3ccccc3)cn3c2SCCC3)cc1

IC50 [14]: > 40.6 µM (inactive)
SMILES: COc1ccc(-n2c(SCC(=O)NN=C(S)Nc3ccccc3)nc3ccccc3c2=O)cc1

Further lines, the molecule ahead of its results:

SMILES: Oc1cc(C(F)(F)F)nc2ccc(OC(F)(F)F)cc12
IC50 [1]: > 20 µM (inactive)
EC50 (BJ [2]): 41.4 µM (active)
EC50 [3]: 38.4 µM (active)
IC50 [4]: 4.24 µM (active)
EC50 (BJ [5]): 38.8 µM (active)
EC50 (BJ [6]): > 150 µM (not active)
EC50 [7]: 5.39 µM (active)

SMILES: COc1ccc(NC(=O)NC(C)c2ccc3c(c2)OCO3)c(OC)c1 (centres undefined)
IC50 [1]: > 20 µM (inactive)
IC50 [4]: < 0.368 µM (active)
EC50 [7]: > 53 µM (inactive)

SMILES: CCOC(=O)/C=C(\C)N1N=C(c2ccccc2)CC1c1ccccc1 (centres undefined)
IC50 [8]: 6.48 µM (active)
IC50 [9]: 36.1 µM (active)
IC50 [10]: 19.7 µM (active)
IC50 (Caspase-3): 19.8 µM (active)

SMILES: CCOc1ccccc1/N=C1\SC(CC(=O)Nc2ccc(OC)cc2OC)C(=O)N1CCC1=CCCCC1 (centres undefined)
IC50 [1]: > 20 µM (inactive)
EC50 [12]: 1.98 µM (active)
IC50 [4]: < 0.368 µM (active)
EC50 [13]: > 60 µM (not active)
EC50 [7]: > 53 µM (inactive)

SMILES: C/C(=N\NC(=S)NCCc1ccccc1)c1ccc(O)cc1O
IC50 [14]: > 122 µM (inactive)
IC50 [15]: > 66 µM (inactive)
IC50 [16]: > 66 µM (inactive)

SMILES: C[C@@H]1CN([C@@H](C)CO)C(=O)Cc2cc(NC(=O)Nc3ccc(C(F)(F)F)cc3)ccc2O[C@H]1CN(C)Cc1ccc2c(c1)OCO2
AC50 [17]: 63.7 µM (active)
AC50 [18]: 24 µM (active)
AC50 [19]: 41.5 µM (active)
AC50 (Paired box protein Pax-8): 7.85 µM (active)

SMILES: O=C1C(=O)N(Cc2ccc(-c3ccc(Cl)nc3)cc2)c2ccc(OC(F)(F)F)cc21
IC50 [14]: > 122 µM (inactive)

Reference: ChEMBL document CHEMBL1201862, “PubChem BioAssay data set” (2004)
